System: S. typhimurium strains TA97, TA98, TA100 and TA102
Assay: Bacterial reverse mutation assay (Ames assay), all strains
Type: cell-based, Salmonell typhimurium
Method: A sample of 2-aminofluorene (10 μg/plate) was used for TA97, TA98, TA100 +S9 test strains, while 1,8-dihydroxyanthraquinone (60 μg/plate) was used for the TA102 +S9 test strain. The histidine was added with the same amount. The plates were incubated for 48 h at 37 °C; the number of colonies was then counted per plate.

N#CC1=C(N)Oc2c(c(=O)oc3ccccc23)C1c1cc(C(F)(F)F)cc(C(F)(F)F)c1 (centres unmarked) [LP4C]
number of bacterial revertant colonies vs DMSO negative control (LP4C 50 μg/plate to 5000 μg/plate): did not increase | mutagenic potential (LP4C 50 to 5000 μg/plate, ±S9): no obvious mutagenic potential

From PMC10096344 (Molecules, 2023)
